Test results taken from patent US8030446B2, “Mutant proline-and-arginine rich peptides and methods for using the same” (Trustees of Dartmouth College, priority 2006, dated 2011).
pIC50: −log10 of the molar value. Read-outs that look alike come from different tables or passages of the source. Marks after values point to notes of the source that are not given here. Ends that are not written are not given here.

How the values were obtained:
[1] = molecular target: T1, Mammalian (Human) 20s Proteasome (Homo sapiens, UniProt P25788); test: Chymotrypsin-like (ChT-L) peptidase activity of 20S proteasome, N-succinyl-LLVY-AMC substrate; assay type: biochemical; conditions: for pIC50: 15-minute pre-incubation, 1 hour at 37° C., pH 7.5, 0.03% SDS
T1 construct: purchased Boston Biochem (Cambridge, Mass.)
Experimental: Determination of Enzymatic Activity. Mammalian (Human) 20s Proteasome was purchased from Boston Biochem (Cambridge, Mass.); substrate, N-succinyl-LLVY-AMC was purchased from SIGMA (St. Louis, Mo.); and negative control, Lactacystin, was purchased from SIGMA. […] Activity was determined by measuring the amount of a fluorescence observed upon release of the MCA group after a 1 hour incubation at 37° C. in 50 mM sodium phosphate buffer at pH 7.5 containing 0.03% SDS. Inhibition by PR-peptide was measured after a 15-minute pre-incubation at 37° C. of each peptide with 20S proteasome, followed by the addition of the substrate and the one hour incubation.

[2] = system: genes regulating the NF-κB pathway in human umbilical vein endothelial cells (HUVEC); test: NF-κB pathway-specific gene expression microarray in HUVEC treated with PR peptides; assay type: cell-based; conditions: for overall inhibitory effect on NF-κB pathway-related gene expression (in words): FIG. 1, averaged % inhibition over 13 down-regulated genes, relative to PR11; for AKT1 gene expression / ATF2 gene expression / CREB1 gene expression / ELK3 gene expression / JNK1 gene expression / MEK4 gene expression / MEKK1 gene expression / MEKK2 gene expression / NF-κB1 gene expression / NF-κB2 gene expression / P38 MAPK gene expression / RANK gene expression / RIP gene expression / TAK1 gene expression / TBK1 gene expression / TRAF6 gene expression / number of significantly reduced genes: HUVEC; for AKT1 gene expression / ATF2 gene expression / CREB1 gene expression / ELK3 gene expression / JNK1 gene expression / MEK4 gene expression / MEKK1 gene expression / MEKK2 gene expression / NF-κB1 gene expression / NF-κB2 gene expression / P38 MAPK gene expression / RANK gene expression / RIP gene expression / TAK1 gene expression / TBK1 gene expression / TRAF6 gene expression: PR peptides 1 μM, 8 hours, relative to untreated controls; for number of significantly reduced genes: of the 13 down-regulated genes of Tables 5 and 6
Experimental: Cell Culture. Human umbilical vein endothelial cells (HUVEC, Cambrex Bio Science Walkersville, Inc., East Rutherford, N.J.) were cultured in endothelial cell basal medium-2 supplemented with EGM-2 SINGLEQUOTS (Cambrex Bio Science Walkersville, Inc.) and FBS. Confluent HUVEC, passage 3-5, were starved overnight in medium supplemented with 0.5% FBS, 0.25% BSA and incubated with PR peptides (1 μM) for 8 hours in starvation medium.
Total RNA Extraction and Gene Profiling by Microarray. Total RNA extraction was performed using the RNEASY mini kit protocol (QIAGEN, Valencia, Calif.). The quality and quantity of total RNA was determined using RNA 6000 Nano chips (Agilent Technology, Santa Clara, Calif.).
Gene profiling was performed using pathway-specific gene expression array for NF-κB signaling transduction (HS-016.2, SuperArray Bioscience Corp.). A total of 96 cDNA fragments from genes related to NF-κB mediated signal transduction, including: NF-κB/IκB family, NF-κB responsive genes (adhesion molecules, cytokines), extracellular ligands, transmembrane receptors, adaptor proteins, signal transduction kinases, and transcription factors were printed in tetraspot format on 3.8×4.8 cm nylon array membrane. Total RNA (0.5 μg) was reverse-transcribed into cDNA labeled with biotin-dUTP according to the manufacture's protocol. After overnight hybridization at 60° C., array membranes were treated with alkaline phosphate-conjugated streptavidin followed by chemiluminescent alkaline phosphate substrate CDP-star (Applied Biosystems, Foster City, Calif.) and exposed to X-ray film. The data were extracted from raw images using […] software (SuperArray, Bioscience Corp.). After background subtraction, the level of gene expression was determined as signal intensity units relative to total array intensity signal. Statistical significant altered genes (PR peptides vs. control) at P values <0.05 were analyzed by Student's t-test, 2-tailed distribution. The data were expressed as fold change PR peptides relative to controls (untreated cells kept in similar conditions).

[3] = chymotrypsin-like activity, read-out: I50

Substance	pIC50 [1, 3]	overall inhibitory effect on NF-κB pathway-related gene expression (in words) [2]	AKT1 gene expression [2]	ATF2 gene expression [2]	CREB1 gene expression [2]	ELK3 gene expression [2]	JNK1 gene expression [2]	MEK4 gene expression [2]	MEKK1 gene expression [2]	MEKK2 gene expression [2]	NF-κB1 gene expression [2]	NF-κB2 gene expression [2]	P38 MAPK gene expression [2]	RANK gene expression [2]	RIP gene expression [2]	TAK1 gene expression [2]	TBK1 gene expression [2]	TRAF6 gene expression [2]	other results
AAAPRPPYLPR [AAA, reference compound]																			pIC50 ([1]; I50, chymotrypsin-like activity): < 4.00
AARPRPPYLPR [AAR]	4.84																		
ARAPRPPYLPR [ARA]	4.95																		
ARRPRPPELPR [Peptide A1E8]	4.31	reduced activity compared with PR11 or Trp12	0.8 fold change	−1.5* fold change	−2.2* fold change	^−1.9^# fold change	−1.5 fold change	−1.2 fold change	−0.8 fold change	−1.2 fold change	−1.6 fold change	−3.5* fold change	−1.6 fold change	1.3 fold change	−10.4^# fold change	−1.8 fold change	−2.0^# fold change	−1.6 fold change	
ARRPRPPYLPR [Peptide A1]	5.55	dramatically reduced PR11 activity	1.3 fold change	−1.4* fold change	−1.4 fold change	0.9 fold change	−1.1 fold change	−0.9 fold change	−1.0 fold change	−1.2 fold change	−1.1 fold change	−1.1 fold change	−1.1 fold change	1.2 fold change	−0.9 fold change	−1.4* fold change	−1.4* fold change	−1.1 fold change	
H-RRRPRPPYLPRPRPPPFFPPRLPPRIPPGFPPRFPPRFP-OH [PR39, reference compound]	8.40																		
KKKPRPPYLPR [KKK]	5.57	lowest inhibitory effect in this series	1.7 fold change	−1.3 fold change	−1.3 fold change	1.4^# fold change	−2.5 fold change	−2.8* fold change	−2.0 fold change	−1.5 fold change	−2.4 fold change	−1.4 fold change	−1.3 fold change	1.2 fold change	−2.6 fold change	−2.9* fold change	−1.8^# fold change	−1.3 fold change	number of significantly reduced genes [2]: 3 genes
KRRPRPPELPR [Peptide K1E8]	5.20	higher than that of Glu8 or Ala1Glu8	0.6 fold change	−2.6^# fold change	−5.0^# fold change	^−1.9^# fold change	−2.2 fold change	−1.9* fold change	−1.4 fold change	−3.0^# fold change	−1.9 fold change	−2.3* fold change	−2.6^# fold change	0.7 fold change	−3.3* fold change	−2.4^# fold change	−3.6^# fold change	−5.5* fold change	
RAAPRPPYLPR [RAA]	4.70																		
RARPRPPYLPR [Peptide A2]	5.56	dramatically reduced PR11 activity	1.4 fold change	−1.2 fold change	−1.4 fold change	1.0 fold change	−1.5 fold change	−1.9 fold change	−1.8 fold change	−0.9 fold change	−1.2 fold change	−0.8 fold change	−0.9 fold change	1.4 fold change	−1.1 fold change	−0.8 fold change	−1.3 fold change	−1.1 fold change	
RKRPRPPYLPR [Peptide K2]	6.27	not significantly different than PR11	1.6 fold change	−2.0^# fold change	−2.6 fold change	1.5* fold change	−3.1 fold change	−9.3^# fold change	−5.3* fold change	−1.7 fold change	−2.1 fold change	−1.5 fold change	−1.4 fold change	1.1 fold change	−2.8* fold change	−2.1* fold change	−4.6^# fold change	−2.5 fold change	number of significantly reduced genes [2]: 6 genes
RRAPRPPYLPR [Peptide A3]	5.50	more active than A1-PR11 and A2-PR11	1.7 fold change	−1.3 fold change	−1.3 fold change	1.3* fold change	−2.6 fold change	−2.7* fold change	−1.9 fold change	−2.1* fold change	−2.0 fold change	−1.4 fold change	−1.9* fold change	1.7* fold change	−3.0* fold change	−3.3* fold change	−2.1* fold change	−1.4 fold change	number of significantly reduced genes [2]: 5 genes
RRKPRPPYLPR [Peptide K3]	6.09	not significantly different than PR11	1.7 fold change	−1.6* fold change	−1.6 fold change	1.4^# fold change	−3.2* fold change	−3.1* fold change	−3.2 fold change	−1.9^# fold change	−2.2 fold change	−1.2 fold change	−1.7* fold change	1.7* fold change	−2.4* fold change	−3.1^# fold change	−1.8* fold change	−1.7 fold change	number of significantly reduced genes [2]: 8 genes
RRRARPPYLPR [Peptide A4]	5.30																		
RRRPAPPYLPR [Peptide A5]	5.58																		
RRRPRAPYLPR [Peptide A6]	5.91																		
RRRPRPAYLPR [Peptide A7]	6.07																		
RRRPRPPYGPR [Peptide G9]	6.86																		20S proteasome inhibiting activity (in words) ([1]; chymotrypsin-like activity): fully active
RRRPRPPYLAR [Peptide A10]	6.11																		
RRRPRPPYLPA [Peptide A11]	6.16																		
